Measured values from patent US11166930B2, “Isotopically modified components and therapeutic uses thereof” (RETROTOPE, INC., priority 2016, dated 2021).

Columns and labels:
[1] = target: COX1 (Homo sapiens, UniProt P23219); conditions: compared with other types of deuterated arachidonic acid; unmodified arachidonic acid as control
Description: The effect of a high level of isotopically modified polyunsaturated lipid (e.g. arachidonic acids having deuterium at bis-allylic sites) on the enzymatic activity of cyclooxygenase (COX) was examined in vitro. The COX1 activity was measured by oxygen consumption (Clark electrode) in vitro. […] Arachidonic acid with no deuterium modification was used as a control.

[2] = system: Aldh2−/− mice; conditions: Aldh2−/− mice as well as APP/PS1 and 3×Tg transgenic mice; cited from earlier work

COX1, sequence (P23219 24-599): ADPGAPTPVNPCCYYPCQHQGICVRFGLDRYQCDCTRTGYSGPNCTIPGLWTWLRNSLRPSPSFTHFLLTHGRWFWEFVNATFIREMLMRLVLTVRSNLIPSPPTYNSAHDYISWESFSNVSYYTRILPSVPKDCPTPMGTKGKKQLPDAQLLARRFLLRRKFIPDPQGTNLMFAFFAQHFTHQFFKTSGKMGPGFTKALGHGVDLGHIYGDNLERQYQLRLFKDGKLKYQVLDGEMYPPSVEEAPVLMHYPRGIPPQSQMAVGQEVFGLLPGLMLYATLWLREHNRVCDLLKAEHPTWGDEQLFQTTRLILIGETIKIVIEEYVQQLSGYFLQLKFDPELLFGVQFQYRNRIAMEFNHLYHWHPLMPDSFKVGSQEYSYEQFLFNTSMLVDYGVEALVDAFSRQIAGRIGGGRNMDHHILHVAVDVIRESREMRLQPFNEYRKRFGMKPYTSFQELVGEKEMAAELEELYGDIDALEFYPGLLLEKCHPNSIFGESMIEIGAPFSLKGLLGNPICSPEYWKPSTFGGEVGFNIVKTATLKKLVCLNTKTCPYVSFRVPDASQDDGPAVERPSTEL

SMILES	reduction of COX1 activity [1]	memory [2]
[2H]C([2H])(/C=C\C/C=C\C/C=C\CCCC(=O)O)/C=C\CCCCC [13,13-D2-arachidonic acid]	most effective in reducing the activity of COX1	–
Cc1ncsc1CCO[N+](=O)[O-].Cl [NMZ, 4-methyl-5-(2-(nitrooxy)ethyl)thiazol-3-ium chloride]	–	memory can be improved
